Results on two substances are retold here after US4661471A, “Method of inhibiting and inducing human platelet aggregation” (New England Deaconess Hospital, priority 1984, dated 1987).

Ends that are not written are not given here.

The test system of assay [1] is fibrinogen binding to Human platelets. The assay is described as follows: Inhibition of 125I-fibrinogen binding to ADP-treated human platelets. The following applies: 10^8 platelets/0.5 ml treated with 5-10 micromoles of ADP; 125I-labelled fibrinogen; read-out: IC50 or 50% inhibition of fibrinogen binding. How it is done:
The following experiment illustrates that the peptides of the invention can inhibit fibrinogen binding to platelets. Human platelets at a concentration of 10^8 cells/0.5 ml were treated with 5-10 micromoles of ADP. Various concentrations of the inhibitory peptides were mixed with the platelets and then […] ^125 I-labelled fibrinogen was added to the solution. The IC50 or 50% inhibition of fibrinogen binding was determined for each peptide by allowing the reaction to proceed to a conclusion, separating the platelets from unbound ^125 I-fibrinogen and determining the amount of labelled fibrinogen bound to the platelets. The less labelled fibrinogen bound to the platelets, the better the inhibition.

In assay [2] the test system is human platelets. Nature of the assay: Inhibition of ADP-induced fibrinogen (gamma chain multimer) cross-linked aggregation of platelets, light transmission. Type of assay: cell-based. Also noted: dose or concentration left out as unconfirmed. The following applies: 10^8 platelets treated with 5-10 micromoles of ADP; 7 micromoles of gamma chain fibrinogen multimers. How it is done:
The sole figure of the drawing illustrates the inhibition of ADP-induced fibrinogen dependent platelet aggregation caused by incubation with various peptides of the invention.
A 60 µM concentration of a variety of synthetic peptides of the invention was added to 10^8 platelets which had been treated with 5-10 micromoles of ADP. At time zero, 7 micromoles of gamma chain fibrinogen multimers was added and the transmission of the solution was monitored for platelet aggregate formation. FIG. 1 illustrates the results of this experiment. […] While gamma chain multimers were used, similar results have been obtained with bivalent fibrinogen molecules.

In assay [3] the test system is human platelets. The assay is described as follows: Aggregation of ADP-treated platelets separated from plasma proteins by the synthetic peptide-albumin conjugate, in the absence of fibrinogen. The class given is cell-based. The following applies: peptide added to the platelets prior to the conjugate. How it is done: Ten micromoles of ADP was added to 10^8 platelets which had been separated from the plasma proteins.

Usually IC50 stands for the midpoint of a concentration-inhibition curve. For “Cys-Tyr-Gly-Gln-Gln-His-His-Leu-Gly-Gly-Ala-Lys-Gln-Ala-Gly-Asp-Val-COOH (CYGQQHHLGGAKQAGDV-OH) [heptadecapeptide]”, the IC50 in assay [1] came out at 28 µM.
In the case of HHLGGAKQAGDV [dodecapeptide], the “inhibition of the aggregation reaction (transmission)” value with human platelets [2] was “almost complete inhibition”. For the same substance, the “inhibition of aggregation induced by the synthetic peptide-albumin conjugate” value with human platelets [3] is given as “the aggregation reaction is inhibited”. Besides, in assay [1], the IC50 is 28 µM.
